# Results from paper PMC11285948, “The effects of CYP2B6 inactivators on the metabolism of ciprofol” (PLOS ONE, 2024).
# Where “and” joins values, the source holds several entries; their conditions need not be identical. Equal values may be shown once. Read-outs that look alike come from different tables or passages of the source.
# Test: Pharmacokinetics of ciprofol in rats pretreated with psoralen, clopidogrel or CMC
# Type: in vivo, rat
# Details: ciprofol 2.4 mg·kg^-1 i.v.; for concentration at 20 min: T 20.00 min; for concentration at 30 min: T 30.00 min; for concentration at 45 min: T 45.00 min; for concentration at 2 min: T 2.00 min; for concentration at 8 min: T 8.00 min; for concentration at 12 min: T 12.00 min; for concentration at 16 min: T 16.00 min
# Procedure: 5 μL of IS solution (2.5 μg·mL^-1 D6-ciprofol) was added to 100 μL of plasma and mixed. Then, 300 μL of acetonitrile was added. The mixture was vortexed for 2 min and centrifuged for 10 min, and the supernatant was transferred to an autosampler vial for HPLC-MS/MS detection.
# Twenty-four SD rats were randomly and equally divided into three groups: the control group, psoralen group and clopidogrel group. The administration scheme was as follows: the control group received 0.5% carboxy methyl cellulose by gavage (1 mL·200 g^-1), the psoralen group received 27 mg·kg^-1 psoralen by gavage, and the clopidogrel group was gavaged with 7.5 mg·kg^-1 clopidogrel. […] All rats were treated once daily for seven days. Each rat was injected with 2.4 mg·kg^-1 ciprofol via the tail vein 12 h after the end of dosing on Day 7. Rats that received ciprofol injection were placed on a flat and soft insulation pad. Timekeeping began when the rats were in the supine position and lost the righting reflex and ended when the rats could turn to the prone position successfully. The duration of loss of righting reflex (LORR) in each rat was measured. During this period, approximately 300 μL of blood was collected from the inner canthus at 2, 4, 8, 12, 16, 20, 30, 45, and 60 min after ciprofol administration, and the plasma was separated. The plasma was processed and measured as described in Section 2.4.3, and DAS 2.0 software and a noncompartmental model were used to analyse the pharmacokinetic parameters.
# IBM SPSS Statistics 27 software was used to analyse the main pharmacokinetic parameters, and GraphPad Prism 8.0.2 software was used for graphical visualization. One-way ANOVA was used, and multiple comparisons were performed using the least significant difference (LSD)-T test, for which P < 0.05 indicated a significant difference.
# [1] = SD, rat, plasma, intravenous, 2.4 mg/kg, rats, Clopidogrel group (7.5 mg·kg^-1 gavage daily 7 d), n = 8
# [2] = SD, rat, plasma, intravenous, 2.4 mg/kg, rats, Control group (0.5% CMC gavage 7 d), n = 8
# [3] = SD, rat, plasma, intravenous, 2.4 mg/kg, rats, Psoralen group (27 mg·kg^-1 gavage daily 7 d), n = 8
# [4] = SD, rat, plasma, iv, 2.4 mg/kg, Control (CMC-Na), rats No.1-8 and Mean
# [5] = SD, rat, plasma, iv, 2.4 mg·kg^-1, Control (CMC-Na), rats No.1-8 and Mean
# [6] = SD, rat, plasma, iv, 6.75 mg/kg, Clopidogrel(6.75mg/kg)group, rats No.1-8 and Mean
# [7] = SD, rat, plasma, iv, 27 mg/kg, Psoralen(27mg/kg)group, rats No.1-8 and Mean
smiles,measurement,setting,value
CC(C)c1cccc([C@H](C)C2CC2)c1O [ciprofol],Tmax,"Control (CMC-Na), rats No.1-8 and Mean",2.00 min
same,Tmax,"Psoralen(27mg/kg)group, rats No.1-8 and Mean",2.00 min
same,CLz,"Psoralen(27mg/kg)group, rats No.1-8 and Mean, 27 mg/kg",140 mL/min/kg and 120 mL/min/kg and 130 mL/min/kg
same,clearance,"SD, rat, plasma, Psoralen(27mg/kg)group, rats No.1-8 and Mean, read-out: CLz",130 mL/min/kg
same,AUC(0-inf),[1],318 ± 45 ng·h/mL
same,AUC(0-t),[1],296 ± 40.8 ng·h/mL
same,Cmax,[1],1490 ± 292 ng/mL
same,clearance,"SD, rat, plasma, intravenous, 2.4 mg/kg, rats, Clopidogrel group (7.5 mg·kg^-1 gavage daily 7 d), n = 8, read-out: CL (converted)",128 mL/min/kg
same,MRT last,"SD, rat, plasma, intravenous, 2.4 mg/kg, rats, Clopidogrel group (7.5 mg·kg^-1 gavage daily 7 d), n = 8, read-out: MRT0-t",12.6 ± 1.2 min
same,MRT inf,"SD, rat, plasma, intravenous, 2.4 mg/kg, rats, Clopidogrel group (7.5 mg·kg^-1 gavage daily 7 d), n = 8, read-out: MRT0-∞",18.6 ± 6.6 min
same,Vd,"SD, rat, plasma, intravenous, 2.4 mg/kg, rats, Clopidogrel group (7.5 mg·kg^-1 gavage daily 7 d), n = 8, read-out: Vd",3.71 ± 2.03 L/kg
same,half-life,"SD, rat, plasma, intravenous, 2.4 mg/kg, rats, Clopidogrel group (7.5 mg·kg^-1 gavage daily 7 d), n = 8, read-out: t1/2 (converted)",21 ± 13.8 min
same,AUC(0-inf),[2],268 ± 35.5 ng·h/mL
same,AUC(0-t),[2],260 ± 35.1 ng·h/mL
same,Cmax,[2],1550 ± 173 ng/mL
same,clearance,"SD, rat, plasma, intravenous, 2.4 mg/kg, rats, Control group (0.5% CMC gavage 7 d), n = 8, read-out: CL (converted)",152 mL/min/kg
same,MRT last,"SD, rat, plasma, intravenous, 2.4 mg/kg, rats, Control group (0.5% CMC gavage 7 d), n = 8, read-out: MRT0-t",10.8 ± 0.6 min
same,MRT inf,"SD, rat, plasma, intravenous, 2.4 mg/kg, rats, Control group (0.5% CMC gavage 7 d), n = 8, read-out: MRT0-∞",13.2 ± 2.4 min
same,Vd,"SD, rat, plasma, intravenous, 2.4 mg/kg, rats, Control group (0.5% CMC gavage 7 d), n = 8, read-out: Vd",3.02 ± 0.72 L/kg
same,half-life,"SD, rat, plasma, intravenous, 2.4 mg/kg, rats, Control group (0.5% CMC gavage 7 d), n = 8, read-out: t1/2 (converted)",13.8 ± 3 min
same,AUC(0-inf),[3],315 ± 23.4 ng·h/mL
same,AUC(0-t),[3],299 ± 17.6 ng·h/mL
same,Cmax,[3],1490 ± 200 ng/mL
same,clearance,"SD, rat, plasma, intravenous, 2.4 mg/kg, rats, Psoralen group (27 mg·kg^-1 gavage daily 7 d), n = 8, read-out: CL (converted)",128 mL/min/kg
same,MRT last,"SD, rat, plasma, intravenous, 2.4 mg/kg, rats, Psoralen group (27 mg·kg^-1 gavage daily 7 d), n = 8, read-out: MRT0-t",13.8 ± 1.2 min
same,MRT inf,"SD, rat, plasma, intravenous, 2.4 mg/kg, rats, Psoralen group (27 mg·kg^-1 gavage daily 7 d), n = 8, read-out: MRT0-∞",16.8 ± 3 min
same,Vd,"SD, rat, plasma, intravenous, 2.4 mg/kg, rats, Psoralen group (27 mg·kg^-1 gavage daily 7 d), n = 8, read-out: Vd",2.8 ± 0.46 L/kg
same,half-life,"SD, rat, plasma, intravenous, 2.4 mg/kg, rats, Psoralen group (27 mg·kg^-1 gavage daily 7 d), n = 8, read-out: t1/2 (converted)",15.6 ± 3 min
same,concentration at 20 min,[4],159 ng/mL
same,concentration at 30 min,[4],93.3 ng/mL
same,concentration at 45 min,[4],67.3 ng/mL
same,Cmax,[4],1550 ng/mL
same,clearance,"SD, rat, plasma, iv, 2.4 mg/kg, Control (CMC-Na), rats No.1-8 and Mean, read-out: CLz",150 mL/min/kg
same,MRT last,"SD, rat, plasma, iv, 2.4 mg/kg, Control (CMC-Na), rats No.1-8 and Mean, read-out: MRT(0-t) (converted)",10.8 min
same,MRT inf,"SD, rat, plasma, iv, 2.4 mg/kg, Control (CMC-Na), rats No.1-8 and Mean, read-out: MRT(0-∞) (converted)",12.9 min
same,Vd,"SD, rat, plasma, iv, 2.4 mg/kg, Control (CMC-Na), rats No.1-8 and Mean, read-out: Vz",3.02 L/kg
same,half-life,"SD, rat, plasma, iv, 2.4 mg/kg, Control (CMC-Na), rats No.1-8 and Mean, read-out: t1/2z",13.8 min
same,concentration at 2 min,[5],1500 ng/mL
same,concentration at 8 min,[5],419 ng/mL
same,concentration at 12 min,[5],312 ng/mL
same,concentration at 16 min,[5],224 ng/mL
same,concentration at 2 min,[6],1050 ng/mL
same,concentration at 8 min,[6],406 ng/mL
same,concentration at 12 min,[6],334 ng/mL
same,concentration at 16 min,[6],266 ng/mL
same,concentration at 20 min,[6],193 ng/mL
same,concentration at 45 min,[6],65.7 ng/mL
same,concentration at 60 min,"SD, rat, plasma, iv, 6.75 mg/kg, Clopidogrel(6.75mg/kg)group, T 60.00 min, rats No.1-8 and Mean",43.3 ng/mL
same,Cmax,[6],1490 ng/mL
same,clearance,"SD, rat, plasma, iv, 6.75 mg/kg, Clopidogrel(6.75mg/kg)group, rats No.1-8 and Mean, read-out: CLz",130 mL/min/kg
same,MRT last,"SD, rat, plasma, iv, 6.75 mg/kg, Clopidogrel(6.75mg/kg)group, rats No.1-8 and Mean, read-out: MRT(0-t) (converted)",12.6 min
same,concentration at 2 min,[7],1560 ng/mL
same,concentration at 4 min,"SD, rat, plasma, iv, 27 mg/kg, Psoralen(27mg/kg)group, T 4.00 min, rats No.1-8 and Mean",895 ng/mL
same,concentration at 8 min,[7],532 ng/mL
same,concentration at 12 min,[7],374 ng/mL
same,concentration at 16 min,[7],348 ng/mL
same,concentration at 20 min,[7],203 ng/mL
same,concentration at 30 min,[7],145 ng/mL
same,Cmax,[7],1490 ng/mL
same,MRT last,"SD, rat, plasma, iv, 27 mg/kg, Psoralen(27mg/kg)group, rats No.1-8 and Mean, read-out: MRT(0-t) (converted)",13.6 min
same,MRT inf,"SD, rat, plasma, iv, 27 mg/kg, Psoralen(27mg/kg)group, rats No.1-8 and Mean, read-out: MRT(0-∞) (converted)",17 min
same,Vd,"SD, rat, plasma, iv, 27 mg/kg, Psoralen(27mg/kg)group, rats No.1-8 and Mean, read-out: Vz",2.8 L/kg
same,half-life,"SD, rat, plasma, iv, 27 mg/kg, Psoralen(27mg/kg)group, rats No.1-8 and Mean, read-out: t1/2z",15.4 min
same,Tmax,"SD, rat, plasma, iv, Clopidogrel(6.75mg/kg)group, rats No.1-8 and Mean, read-out: Tmax (converted)",2 min
same,Tmax,"SD, rat, plasma, iv, Control (CMC-Na), rats No.1-8 and Mean, read-out: Tmax (converted)",2 min
same,Tmax,"SD, rat, plasma, iv, Psoralen(27mg/kg)group, rats No.1-8 and Mean, read-out: Tmax (converted)",2 min
